Consider one molecule from PMC5298231, “The Malaria Parasite's Lactate Transporter PfFNT Is the Target of Antiplasmodial Compounds Identified in Whole Cell Phenotypic Screens” (PLoS Pathogens, 2017).

One data set has as its system Dd2 parent parasites. The experiment in a line: Parasite proliferation assay, Dd2 parent. It counts as cell-based, Plasmodium falciparum. The settings on record: Dd2 parent; mean ± SEM; read-out: IC50 value, growth inhibition.
Data set [1] concerns MMV007839-selected culture A (PfFNT Gly107Ser). The data set can be described thus: Parasite proliferation assay, MMV007839-selected culture A. It counts as cell-based, Plasmodium falciparum. The procedure:
(§1) Parasite proliferation was measured in 96-well plates using a fluorescent DNA-intercalating dye. The assays were initiated with erythrocytes infected with predominantly ring-stage parasites, and the starting parasitaemia was 0.5–1% and the haematocrit was 1%.
(§2) For MMV007839-selected culture A, the drug concentration was increased by 5 nM increments on Day 18, Day 21, and every two days thereafter. […] The cultures were provided with fresh medium and blood and diluted to reduce the parasitaemia as needed.

In data set [2] the test system is MMV007839-selected culture B (PfFNT Gly107Ser). The data set can be described thus: Parasite proliferation assay, MMV007839-selected culture B. It counts as cell-based, Plasmodium falciparum. The settings on record: MMV007839-selected culture B; mean ± SEM; read-out: IC50 value, growth inhibition. The procedure:
as §1, §2

Another data set concerns the target T1, native PfFNT (Plasmodium falciparum, UniProt O77389).
T1 construct: expressed in transfected cells; host or cells: Xenopus laevis oocytes (cRNA microinjected, 30 ng)
The format is cell-based. Particulars: native PfFNT in Xenopus oocytes; pH 6.4, 27.5°C, 10 min; mean ± SEM, n = 4; read-out: IC50, inhibition of PfFNT-mediated L-[14C]lactate transport. The procedure: (§3) The PfFNT-mediated uptake of L-[^14C]lactate by oocytes expressing native PfFNT (black symbols) or oocytes expressing PfFNT^Gly107Ser (white symbols) was measured in the presence of a range of different concentrations of MMV007839 (A) and MMV000972 (B). […] To enable a visual comparison between the native PfFNT and PfFNT^Gly107Ser datasets, only part of the concentration range used for the latter is shown in the main panels. The insets show the data obtained for PfFNT^Gly107Ser over the full concentration range tested. In all cases, the data are averaged from four independent experiments (using oocytes from different frogs) and are shown ± SEM. The uptake was measured at 27.5°C over 10 min at pH 6.4 using 2.7 μM L-[^14C]lactate and 600 μM unlabelled L-lactate.
(§4) The oocyte expression vectors containing PfFNT, PfENT1 and PfCRT were made previously. […] The uptake of radiolabelled substrates was measured 2–5 days post-injection at 27.5°C in ND96 buffer (containing 96 mM NaCl, 2 mM KCl, 1 mM MgCl2, 1.8 mM CaCl2, 10 mM MES and 10 mM Tris-base; pH-adjusted to the value specified in the relevant Figure legends). […] The oocytes were then transferred to separate wells of a 96-well plate, lysed with 10% SDS, and the radioactivity measured as described previously.

The target of another data set is T2, PfFNT^Gly107Ser (Plasmodium falciparum, UniProt O77389, G107S).
T2 construct: expressed in transfected cells; host or cells: Xenopus laevis oocytes (cRNA microinjected, 30 ng)
T2 sequence (O77389 1-309 G107S): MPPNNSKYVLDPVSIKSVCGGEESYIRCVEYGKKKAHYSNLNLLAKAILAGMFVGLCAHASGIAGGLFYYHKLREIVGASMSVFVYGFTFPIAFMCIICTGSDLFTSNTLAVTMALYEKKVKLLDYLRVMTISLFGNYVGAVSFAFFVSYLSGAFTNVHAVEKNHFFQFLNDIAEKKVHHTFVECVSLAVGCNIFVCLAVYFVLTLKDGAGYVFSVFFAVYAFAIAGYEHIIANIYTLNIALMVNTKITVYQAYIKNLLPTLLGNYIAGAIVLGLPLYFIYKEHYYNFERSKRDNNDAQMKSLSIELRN
The data set can be described thus: PfFNT-mediated L-[14C]lactate uptake by Xenopus oocytes expressing PfFNT Gly107Ser. The format is cell-based. The settings on record: PfFNT Gly107Ser in Xenopus oocytes; pH 6.4, 27.5°C, 10 min; mean ± SEM, n = 4; read-out: IC50, inhibition of PfFNT-mediated L-[14C]lactate transport. The procedure: as §3, §4

The test system of data set [3] is PfCRT (from the chloroquine-resistant Dd2 strain). The experiment in a line: [3H]chloroquine uptake by Xenopus oocytes expressing PfCRT. It counts as cell-based, Plasmodium falciparum. Particulars: 1 μM and 4 μM; pH 5.5. The source says:
(§5) (PfCRT; from the chloroquine-resistant Dd2 strain) and on [^3H]hypoxanthine transport by oocytes expressing the P. falciparum equilibrative nucleoside/nucleobase transporter PfENT1 [27, 28].
The oocyte expression vectors containing PfFNT, PfENT1 and PfCRT were made previously. The Gly107Ser mutant form of PfFNT was generated through site-directed mutagenesis of the oocyte expression vector containing wild-type (3D7) PfFNT using primers 9 and 10 (S2 Table). Oocytes were harvested from adult female Xenopus laevis frogs and prepared as described previously. cRNA was made using the mMessage mMachine T7 transcription kit and the MEGAclear kit (Ambion) and microinjected into oocytes as outlined elsewhere. […] The uptake of radiolabelled substrates was measured 2–5 days post-injection at 27.5°C in ND96 buffer (containing 96 mM NaCl, 2 mM KCl, 1 mM MgCl2, 1.8 mM CaCl2, 10 mM MES and 10 mM Tris-base; pH-adjusted to the value specified in the relevant Figure legends). […] The oocytes were then transferred to separate wells of a 96-well plate, lysed with 10% SDS, and the radioactivity measured as described previously.
The data are averaged from four to five independent experiments (performed using oocytes from different frogs) and are shown + SEM. In B, the uptake of [^3H]hypoxanthine (0.36 μM) was measured over 30 min at pH 6.0. […]

In the next data set the test system is PfENT1. The experiment in a line: [3H]hypoxanthine uptake by Xenopus oocytes expressing PfENT1. The format is cell-based, Plasmodium falciparum.
Description: as §5
The oocyte expression vectors containing PfFNT, PfENT1 and PfCRT were made previously. The Gly107Ser mutant form of PfFNT was generated through site-directed mutagenesis of the oocyte expression vector containing wild-type (3D7) PfFNT using primers 9 and 10 (S2 Table). Oocytes were harvested from adult female Xenopus laevis frogs and prepared as described previously. cRNA was made using the mMessage mMachine T7 transcription kit and the MEGAclear kit (Ambion) and microinjected into oocytes as outlined elsewhere. The amount of cRNA injected (per oocyte) was 30 ng for PfFNT, 10 ng for PfENT1, and 20 ng for PfCRT. The uptake of radiolabelled substrates was measured 2–5 days post-injection at 27.5°C in ND96 buffer (containing 96 mM NaCl, 2 mM KCl, 1 mM MgCl2, 1.8 mM CaCl2, 10 mM MES and 10 mM Tris-base; pH-adjusted to the value specified in the relevant Figure legends). […] Each experiment used ten oocytes for each condition tested. The influx of the radiolabelled substrate was halted by removing the reaction buffer and washing the oocytes twice in ice-cold ND96 buffer (3.5 mL). The oocytes were then transferred to separate wells of a 96-well plate, lysed with 10% SDS, and the radioactivity measured as described previously.
The data are averaged from four to five independent experiments (performed using oocytes from different frogs) and are shown + SEM. In B, the uptake of [^3H]hypoxanthine (0.36 μM) was measured over 30 min at pH 6.0. […] The data are averaged from three to six independent experiments (performed using oocytes from different frogs) and are shown + SEM. […] (TIF) Click here for additional data file.

A further data set concerns non-injected oocytes. It counts as cell-based, Xenopus laevis. Particulars: full range of inhibitor concentrations.
The next data set deals with 3D7 parasites. The settings on record: ref http://www.mmv.org/research-development/malaria-box-supporting-information; read-out: IC50 against 3D7 parasites, other groups; cited from earlier work.
For data set [4] the following is noted: ref [36]; cited from earlier work.
The test system of data set [5] is isolated 3D7 P. falciparum trophozoites. The data set can be described thus: L-[14C]lactate uptake by isolated 3D7 trophozoites. The settings on record: pH 6.1, 4°C, 20 s.
Another data set concerns Dd2 parental parasites. The experiment in a line: L-[14C]lactate uptake by isolated Dd2 parental parasites. Particulars: read-out: IC50, inhibition of L-[14C]lactate uptake; Dd2 (parental) parasites; pH 6.1, 4°C, 20 s; mean ± SEM.
The subject of data set [6] is PfFNT^Gly107Ser mutant parasites (MMV007839-selected culture B). The experiment in a line: L-[14C]lactate uptake by isolated PfFNT Gly107Ser mutant parasites. The settings on record: read-out: IC50, inhibition of L-[14C]lactate transport, pH 6.1, 4°C, 20 s, mean ± SEM.
The subject of data set [7] is 3D7 P. falciparum trophozoites. The experiment in a line: Cytosolic pH (pHcyt) measurement in BCECF-loaded saponin-isolated trophozoites.

Each structure is given as a SMILES string. Some results are limits rather than exact numbers.

T1 sequence (O77389 whole entry): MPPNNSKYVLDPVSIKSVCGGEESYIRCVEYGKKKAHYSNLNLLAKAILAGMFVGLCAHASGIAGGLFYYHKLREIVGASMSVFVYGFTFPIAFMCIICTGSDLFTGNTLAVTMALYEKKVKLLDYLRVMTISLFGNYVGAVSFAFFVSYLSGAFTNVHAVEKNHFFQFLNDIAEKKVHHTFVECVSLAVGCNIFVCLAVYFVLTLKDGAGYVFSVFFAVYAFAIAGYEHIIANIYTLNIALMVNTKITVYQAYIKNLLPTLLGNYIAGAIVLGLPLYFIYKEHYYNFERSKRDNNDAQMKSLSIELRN
Description for Dd2 parent parasites: Parasite proliferation was measured in 96-well plates using a fluorescent DNA-intercalating dye [45]. The assays were initiated with erythrocytes infected with predominantly ring-stage parasites, and the starting parasitaemia was 0.5–1% and the haematocrit was 1%.

For the molecule `O=C1CC(O)(C(F)(F)C(F)(F)F)Oc2ccccc21` (stereo not drawn) [MMV000972], the IC50 was 1.8 ± 0.2 µM in the data set with Dd2 parent parasites; 59.6 ± 0.4 µM in data set [1] (MMV007839-selected culture A, mean ± SEM, read-out: IC50 value, growth inhibition); 59.7 ± 1.4 µM in data set [2]; 0.05 ± 0.001 µM at native PfFNT; 6.3 ± 0.9 µM on PfFNT^Gly107Ser; 2.6 µM with 3D7 parasites. In addition, the IC50 in the data set on Dd2 parental parasites came to 0.049 ± 0.014 µM; in data set [6] it was 15.2 ± 1.9 µM. Moreover, in [1] (both MMV007839-selected cultures (A and B) vs Dd2 parent), the “Fold increase of growth IC50 relative to Dd2 parent” value is recorded as over 30 fold. Further, in data set [3], the “Effect on transport of [3H]chloroquine via PfCRT” value is listed as “not inhibiting”. Besides, the “Inhibition of [3H]hypoxanthine uptake by PfENT1-expressing oocytes” value in the data set with PfENT1 (1 μM and 4 μM, pH 6.0, 30 min) is recorded as “not inhibiting”. In addition, in the data set with PfENT1 (1 μM, P < 0.05), the “Effect on [3H]hypoxanthine uptake by PfENT1-expressing oocytes” value is “slight increase”. For the same molecule, the “Effect on L-[14C]lactate transport into control (non-injected) oocytes” value in the data set on non-injected oocytes is “no changes”. In data set [4], the “Toxicity in Malaria Box toxicity testing” value is given as “display toxicity in some assays”. Besides, the “Inhibition of L-[14C]lactate influx” value in data set [5] (0.5 μM) is recorded as “complete inhibition”. The “Inhibition of L-[14C]lactate uptake” value in [5] (2 μM) was “complete inhibition”. In addition, the “Lactate-induced abrupt acidification of parasite cytosol after pre-treatment” value in data set [7] (2.5 μM pre-treatment, 10 mM L-lactate, 4°C) is on record as “no such abrupt acidification”. In addition, in data set [7] (2.5 μM, 4°C, 10 mM L-lactate, mean ± SEM, n = 3), the “Rate of cytosolic acidification after addition of lactate” value is listed as 0.015 ± 0.006 pH unit/min. Moreover, the “Rate of cytosolic acidification before addition of lactate” value in [7] (2.5 μM, 4°C, mean ± SEM, n = 3) is given as 0.012 ± 0.003 pH unit/min. The “Cytosolic pH restored after restoration of glucose” value in data set [7] (2.5 μM, glucose (22 mM) restored to glucose-deprived parasites, gradual alkalinisation after initial acidification of ~2 min) is listed as “approximately 7.1”. Moreover, the “Effect on cytosolic pH in glucose-containing medium” value in [7] (glucose-containing medium, 37°C (Fig 2B,C: 1 μM)) is “cytosolic acidification”.
